# Data published in PubChem BioAssay (NCI).
# Where “and” joins values, the source holds several entries; their conditions need not be identical. Identical values can stand only once.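 Method: 48-hour compound exposure of cells in 96-well plates, five concentrations, linear interpolation of endpoints. At the GI50, growth is halved. Definition used: TGI = concentration required for complete inhibition of growth.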
# Key:
# Assay in all cases: NCI tumour cell line growth inhibition, 48 h
# SNB-75 CNS = test system: SNB-75 CNS
# CCRF-CEM leukemia = test system: CCRF-CEM leukemia
# SN12C renal = test system: SN12C renal
# 786-0 renal = test system: 786-0 renal
# HCT-15 colon = test system: HCT-15 colon
# HOP-62 NSCLC = test system: HOP-62 NSCLC
# SK-OV-3 ovarian = test system: SK-OV-3 ovarian
# UACC-257 melanoma = test system: UACC-257 melanoma
# T-47D breast = test system: T-47D breast
# NCI-H522 lung = test system: NCI-H522 lung
SMILES,TGI (SNB-75 CNS) [µM],TGI (CCRF-CEM leukemia) [µM],TGI (SN12C renal),TGI (786-0 renal) [µM],TGI (HCT-15 colon),TGI (HOP-62 NSCLC) [µM],TGI (SK-OV-3 ovarian),TGI (UACC-257 melanoma),GI50 (T-47D breast),TGI (T-47D breast),GI50 (CCRF-CEM leukemia) [nM],GI50 (NCI-H522 lung) [nM],TGI (NCI-H522 lung) [µM],GI50 (SN12C renal),GI50 (786-0 renal),GI50 (HCT-15 colon),GI50 (HOP-62 NSCLC) [nM],GI50 (SK-OV-3 ovarian),GI50 (UACC-257 melanoma),GI50 (SNB-75 CNS) [nM]
O=C(NC(=O)c1cn(CCN(CCO)C(=O)NCCCCCCNC(=O)N(CCO)CCn2cc(C(=O)NC(=O)OCc3ccccc3)c(=O)[nH]c2=O)c(=O)[nH]c1=O)OCc1ccccc1,> 100,> 100,> 100 µM,> 100,> 100 µM,> 100,> 100 µM,> 100 µM,–,–,–,–,–,–,–,–,–,–,–,–
COc1ccc2c(c1)nnn1c3ncccc3c(N=O)c21,–,> 100,8.1 µM and 9.82 µM,–,50 µM and 11.8 µM,21.5,11.8 µM and 19.6 µM,30.8 µM and 13.6 µM,162 nM and 515 nM,2360 nM and 7900 nM,40.9,1250,6.49,1400 nM and 2060 nM,334 nM and 2380 nM,3130 nM and 2310 nM,7510,1680 nM and 2940 nM,8210 nM and 2620 nM,–
O=c1c2ccccc2c(=O)n2n1CC=CC2,> 100,> 100,> 100 µM,> 100,> 100 µM,–,> 100 µM,> 100 µM,–,–,–,–,> 100,–,–,–,–,–,–,–
COc1ccc2c(c1)[n+]([O-])c(-c1ccc(OC)c(OC)c1)c(N)[n+]2[O-],> 100,> 100,> 100 µM,> 100,> 100 µM,> 100,> 100 µM,> 100 µM,–,–,–,–,31.5,–,–,–,–,–,–,–
CCN(CC)CCOc1ccc(CCc2cc(OC)c(OC)c(OC)c2)cc1,94.5,> 100,> 100 µM,> 100,> 100 µM,81.4,–,69.9 µM,–,–,–,–,> 100,–,–,–,–,–,–,–
O=C(CC(=O)C1=CNc2ccccc2S1)C(=O)Nc1ccc(Cl)cc1,> 50,> 50,> 50 µM,> 50,> 50 µM,> 50,> 50 µM,> 50 µM,–,–,–,–,> 50,–,–,–,–,–,–,–
CN1CCN(CCOc2ccc(-c3cnc4c(-c5ccc(C(F)(F)F)cc5)cnn4c3)cc2)CC1,2.88,–,3.1 µM,3.16,2.31 µM,3.55,–,3.34 µM,–,–,–,1550,3.16,1660 nM,1670 nM,1020 nM,1630,–,1660 nM,1500
COC(=O)[C@@]12OC[C@]34[C@H]([C@@H](O)[C@@H]1O)[C@@]1(C)[C@H](O)C(=O)C=C(C)[C@@H]1C[C@H]3OC(=O)C(OC(C)=O)[C@@H]24 (stereo partly drawn),0.121,–,0.307 µM,0.0889,0.458 µM,0.156,1.12 µM,0.428 µM,36.2 nM,300 nM,–,< 11.1,0.041,46 nM,26 nM,101 nM,29.4,52.2 nM,66.8 nM,27.3
COC1OC(CBr)C(OC(=O)c2ccccc2)C(O)C1Br (stereo not drawn),–,> 100,> 100 µM,> 100,> 100 µM,> 100,–,> 10 µM,–,–,–,–,> 100,–,–,–,–,–,–,–
